These results are taken from patent US20240262815A1, “HETEROARYL DERIVATIVE, METHOD FOR PREPARING SAME, AND PHARMACEUTICAL COMPOSITION COMPRISING SAME AS ACTIVE INGREDIENT” (VORONOI INC., priority 2021, published 2024).

SMILES strings stand for the structures. A value given as a limit tells only on which side of the number the result lay.

The test system of one test is SK-BR-3 cancer cells. The test can be described thus: Inhibitory activity against proliferation of SK-BR-3 cancer cells (CellTiter-Glo). In kind it is cell-based. As to conditions: Homo sapiens, SK-BR-3, 120 h, ErbB2-overexpressing SK-BR-3 cells, 120 hours after treatment. An outline of the steps:
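Cells seeded 48 h before dosing (SK-BR-3 in McCOY'S 5A + 10% FBS; BT-474 in RPMI-1640 + 20% FBS), then exposed 120 h to 12 concentrations, 0.2 nM-5 μM final. Viability by CellTiter-Glo luminescence; GI50 from growth rate vs control, triplicate runs.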

For a further test, the system named is BT-474 cancer cells. The test can be described thus: Inhibitory activity against proliferation of BT-474 cancer cells (CellTiter-Glo). In kind it is cell-based. The following applies: Homo sapiens, BT-474 ErbB2-overexpressing cancer cells, 120 hours after treatment. As to the method:
To evaluate the inhibitory activity of a compound according to the present invention against the proliferation of ErbB2-overexpressing cancer cells, the following experiment were performed.
10% FBS-added McCOY'S 5A was used for SK-BR-3 cancer cells. 20% FBS-added RPMI-1640 was used for BT-474 cancer cells. Transduced Ba/F3 cells were cultured in a RPMI-1640 medium to which 1 μg/ml puromycin (Invitrogen) was added.
48 hours before compound treatment, each type of the SK-BR-3 and BT-474 cells were seeded at 5,000 cells/well in a white clear bottom 96 well plate (Corning). The compound was diluted in dimethyl sulfoxide (SK-BR-3: 3-fold dilution, a total of 12 concentrations, BT-474: […], a total of 12 concentrations) and injected at 1 μl to have the final concentration of 0.2 nM to 5 μM. As for measurement of live cells, 120 hours after treatment with the compound, a CellTiter-Glo luminescent cell-viability reagent (Promega) was used to store the cells at room temperature for 10 minutes, followed by measurement of luminescence using a reader (SynergyNeo, Biotek). Each test was repeated three times.
The result values were calculated as a cell growth rate (%) compared to the control group. A graph was plotted using the GraphPad Prism version 8.3.0 program, and GI50 values were calculated.

Turning to `C=CC(=O)Nc1cc(Nc2cc(N3OCC[C@@H]3c3cccc(-c4ccccc4)c3)ncn2)c(OC)cc1N(C)CCN(C)C` [Example 173, (R)-N-(5-((6-(3-([1,1′-biphenyl]-3-yl)isoxazolidin-2-yl)pyrimidin-4-yl)amino)-2-((2-(dimethylamino)-ethyl)(methyl)-amino)-4-methoxy-phenyl)acrylamide], the GI50 in the test on SK-BR-3 cancer cells and in the test on BT-474 cancer cells was < 50 nM each time. Turning to `C=CCN1CCN(c2cc(OC)c(Nc3cc(N4OCC[C@@H]4c4cccc(-c5ccccc5)c4)ncn3)cc2NC(=O)C=C)CC1` [Example 174, (R)-N-(5-((6-(3-([1,1′-biphenyl]-3-yl)isoxazolidin-2-yl)pyrimidin-4-yl)amino)-2-(4-allylpiperazin-1-yl)-4-methoxy-phenyl)acrylamide], the GI50 in the test with SK-BR-3 cancer cells and in the test with BT-474 cancer cells was < 50 nM each time. In the case of `C=CC(=O)Nc1cc(Nc2cc(N3OCC[C@@H]3c3cccc(-c4ccccc4)c3)ncn2)c(OC)cc1N1CCO[C@@H](C)C1` [Example 175, N-(5-((6-((R)-3-([1,1′-biphenyl]-3-yl)isoxazolidin-2-yl)pyrimidin-4-yl)-amino)-4-methoxy-2-((S)-2-methyl-morpholino)phen-yl)acrylamide], the GI50 in the test on SK-BR-3 cancer cells and in the test with BT-474 cancer cells was < 50 nM throughout. `C=CC(=O)Nc1cc(Nc2cc(N3OCC[C@@H]3c3cccc(-c4ccccc4)c3)ncn2)c(OC)cc1N1CCO[C@H](C)C1` [Example 176, N-(5-((6-((R)-3-([1,1′-biphenyl]-3-yl)isoxazolidin-2-yl)pyrimidin-4-yl)-amino)-4-methoxy-2-((R)-2-methyl-morpholino)phen-yl)acrylamide]: the GI50 with SK-BR-3 cancer cells and in the test with BT-474 cancer cells was < 50 nM each time.

As for `C=CC(=O)Nc1cc(Nc2cc(N3OCCC3c3cccc(-c4cnc5ccnn5c4)c3)ncn2)c(OC)cc1N1CCN(C)CC1` (stereo not drawn) [Example 201, N-(4-methoxy-2-(4-methylpiper-azin-1-yl)-5-((6-(3-(3-(pyrazolo-[1,5-a]pyrimidin-6-yl)phenyl)-isoxazolidin-2-yl)-pyrimidin-4-yl)-amino)phenyl)-acrylamide], the GI50 with SK-BR-3 cancer cells and in the test with BT-474 cancer cells was < 50 nM each time. As to `C=CC(=O)Nc1cc(Nc2cc(N3OCCC3c3cccc(-c4ccc(C)s4)c3)ncn2)c(OC)cc1N(C)CCN(C)C` (stereo not drawn) [Example 213, N-(2-((2-(dimeth-ylamino)ethyl)-(methyl)amino)-4-methoxy-5-((6-(3-(3-(5-methylthio-phen-2-yl)phenyl)-isoxazolidin-2-yl)-pyrimidin-4-yl)-amino)phenyl)-acrylamide], the GI50 in the test on SK-BR-3 cancer cells and with BT-474 cancer cells was 50 to 500 nM throughout.

Regarding `C=CC(=O)Nc1cc(Nc2cc(N3OCC[C@@H]3c3cccc(-c4ccccc4)c3)ncn2)c(OC)cc1N1CCN(CC)CC1` [Example 216, (R)-N-(5-((6-(3-([1,1′-biphenyl]-3-yl)isoxazolidin-2-yl)pyrimidin-4-yl)-amino)-2-(4-ethyl-piperazin-1-yl)-4-methoxyphenyl)-acrylamide], the GI50 in the test on SK-BR-3 cancer cells and with BT-474 cancer cells was < 50 nM throughout. As to `C=CC(=O)Nc1cc(Nc2cc(N3OCC[C@@H]3c3cc(F)cc(Oc4ccn(C)n4)c3)ncn2)c(OC)cc1N1CCC(N2CCN(C3CC3)CC2)CC1` [Example 219, (R)-N-(2-(4-(4-cyclopropylpiper-azin-1-yl)piper-idin-1-yl)-5-((6-(3-(3-fluoro-5-((1-methyl-1H-pyr-azol-3-yl)oxy)-phenyl)isoxazol-idin-2-yl)pyrim-idin-4-yl)amino)-4-methoxyphen-yl)acrylamide], the GI50 with SK-BR-3 cancer cells and in the test on BT-474 cancer cells was < 50 nM each time.

For the compound `C=CC(=O)Nc1cc(Nc2cc(N3OCC[C@@H]3c3cc(F)cc(Oc4cccc(F)c4)c3)ncn2)c(OC)cc1N1CCN(C)[C@H](C)C1` [Example 221, N-(2-((R)-3,4-dimethylpiper-azin-1-yl)-5-((6-((R)-3-(3-fluoro-5-(3-fluorophen-oxy)phenyl)-isox-azolidin-2-yl)pyr-imidin-4-yl)-amino)-4-methoxy-phenyl)acrylamide], the GI50 with SK-BR-3 cancer cells and with BT-474 cancer cells was < 50 nM throughout. As to `C=CC(=O)Nc1cc(Nc2cc(N3OCC[C@@H]3c3cccc(-c4ccc(C(F)(F)F)cc4)c3)ncn2)c(OC)cc1N1CCN(C)CC1` [Example 332, (R)-N-(4-methoxy-2-(4-methylpiper-azin-1-yl)-5-((6-(3-(4′-(trifluoro-methyl)-[1,1′-bi-phenyl]-3-yl)-isoxazolidin-2-yl)-pyrimidin-4-yl)-amino)phenyl)-acrylamide], the GI50 in the test on BT-474 cancer cells lay in the range of 50 to 500 nM. Turning to `C=CC(=O)Nc1cc(Nc2cc(N3OCC[C@@H]3c3cccc(-c4ccc(C#N)cc4)c3)ncn2)c(OC)cc1N1CCN(C)CC1` [Example 333, (R)-N-(5-((6-(3-(4′-cyano-[1,1′-biphenyl]-3-yl)-isoxazolidin-2-yl)-pyrimidin-4-yl)-amino)-4-methoxy-2-(4-methylpiper-azin-1-yl)phenyl)-acrylamide], the GI50 in the test on BT-474 cancer cells is < 50 nM. Same read-out and setting: for `C=CC(=O)Nc1cc(Nc2cc(N3OCC[C@@H]3c3cccc(C(=O)Nc4ccccc4)c3)ncn2)c(OC)cc1N1CCN(C)CC1` [Example 334, (R)-3-(2-(6-((5-acrylamido-2-meth-oxy-4-(4-methyl-piperazin-1-yl)-phenyl)amino)pyr-imidin-4-yl)isox-azolidin-3-yl)-N-phenylbenzamide] the value was < 50 nM; for `COc1cc(F)c(NC(=O)/C=C/CN(C)C)cc1Nc1cc(N2OCC[C@@H]2c2cccc(-c3cccc(F)c3)c2)ncn1` [Example 335, (R,E)-4-(dimethyl-amino)-N-(2-fluoro-5-((6-(3-(3′-fluoro-[1,1′-biphen-yl]-3-yl)isoxazol-idin-2-yl)pyrim-idin-4-yl)amino)-4-methoxyphen-yl)but-2-enamide], < 50 nM; for `C=CC(=O)Nc1cc(Nc2cc(N3OCC[C@@H]3c3cccc(-c4cccc(F)c4)c3)ncn2)c(OC)cc1N1CCN(CCO)CC1` [Example 336, (R)-N-(5-((6-(3-(3′-fluoro-[1,1′-biphenyl]-3-yl)-isoxazolidin-2-yl)-pyrimidin-4-yl)-amino)-2-(4-(2-hydroxyethyl)-piperazin-1-yl)-4-methoxyphenyl)-acrylamide], < 50 nM.

`C=CC(=O)Nc1cc(Nc2cc(N3OCC[C@@H]3c3cccc(-c4cccc(C)c4C)c3)ncn2)c(OC)cc1N1CCN(C)CC1` [Example 337, (R)-N-(5-((6-(3-(2′,3′-dimethyl-[1,1′-biphenyl]-3-yl)isoxazolidin-2-yl)pyrimidin-4-yl)-amino)-4-methoxy-2-(4-methylpiper-azin-1-yl)phenyl)-acrylamide]: the GI50 in the test on BT-474 cancer cells is < 50 nM. The same measure, in the same setting: for `C=CC(=O)Nc1cc(Nc2cc(N3OCC[C@@H]3c3cccc(-c4cccc(C(=O)OC)c4)c3)ncn2)c(OC)cc1N1CCN(C)CC1` [Example 338, methyl (R)-3′-(2-(6-((5-acrylamido-2-methoxy-4-(4-methylpiperazin-1-yl)phenyl)-amino)pyrimidin-4-yl)isoxazolidin-3-yl)-[1,1′-biphen-yl]-3-carboxylate] the value was < 50 nM; for `C=CC(=O)Nc1cc(Nc2cc(N3OCC[C@@H]3c3cccc(-c4cccc(F)c4)c3)ncn2)c(OC)cc1N1CCC2(CC1)COC2` [Example 339, (R)-N-(5-((6-(3-(3′-fluoro-[1,1′-biphenyl]-3-yl)-isoxazolidin-2-yl)-pyrimidin-4-yl)-amino)-4-methoxy-2-(2-oxa-7-azas-piro[3.5]nonan-7-yl)phenyl)acryl-amide], < 50 nM. With `C=CC(=O)Nc1cc(Nc2cc(N3OCC[C@@H]3c3cccc(-c4cccc(F)c4F)c3)ncn2)c(OC)cc1N1CCN(C2COC2)CC1` [Example 340, (R)-N-(5-((6-(3-(2′,3′-difluoro-[1,1′-biphenyl]-3-yl)isoxazolidin-2-yl)pyrimidin-4-yl)-amino)-4-methoxy-2-(4-(oxetan-3-yl)-piperazin-1-yl)-phenyl)acrylamide], in the test with BT-474 cancer cells, the GI50 is < 50 nM. The same measure, in the same setting: for `C=CC(=O)Nc1cc(Nc2cc(N3OCC[C@@H]3c3cccc(-c4cccc(F)c4)c3)ncn2)c(OC)cc1N1CC2(C1)CN(C1COC1)C2` [Example 341, (R)-N-(5-((6-(3-(3′-fluoro-[1,1′-biphenyl]-3-yl)-isoxazolidin-2-yl)-pyrimidin-4-yl)-amino)-4-methoxy-2-(6-(oxetan-3-yl)-2,6-diazaspiro-[3.3]heptan-2-yl)-phenyl)acrylamide] the value was < 50 nM; for `C=CC(=O)Nc1cc(Nc2cc(N3OCC[C@@H]3c3cccc(-c4cccc(C(=O)N(C)C)c4)c3)ncn2)c(OC)cc1N1CCN(C)CC1` [Example 342, (R)-3′-(2-(6-((5-acrylamido-2-methoxy-4-(4-methylpiperazin-1-yl)phenyl)-amino)pyrimidin-4-yl)isoxazolidin-3-yl)-N,N-dimeth-yl-[1,1′-biphenyl]-3-carboxamide], < 50 nM; for `C=CC(=O)Nc1cc(Nc2cc(N3OCC[C@@H]3c3cccc(-c4cccc(F)c4)c3)ncn2)c(OC)cc1N1CCC2(CC1)CN(C)C2` [Example 343, (R)-N-(5-((6-(3-(3′-fluoro-[1,1′-biphenyl]-3-yl)-isoxazolidin-2-yl)-pyrimidin-4-yl)-amino)-4-methoxy-2-(2-methyl-2,7-diazaspiro[3.5]-nonan-7-yl)phen-yl)acrylamide], < 50 nM.
